Key:
Cathepsin G = target: T1, Cathepsin G (Homo sapiens, UniProt P08311); test: Inhibition of human neutrophil cathepsin G using Boc-Gln-Ala-Arg-MCA as substrate preincubated for 10 mins followed by substrate addition measured after 10 mins by fluorescence assay
T1 sequence (P08311 whole entry): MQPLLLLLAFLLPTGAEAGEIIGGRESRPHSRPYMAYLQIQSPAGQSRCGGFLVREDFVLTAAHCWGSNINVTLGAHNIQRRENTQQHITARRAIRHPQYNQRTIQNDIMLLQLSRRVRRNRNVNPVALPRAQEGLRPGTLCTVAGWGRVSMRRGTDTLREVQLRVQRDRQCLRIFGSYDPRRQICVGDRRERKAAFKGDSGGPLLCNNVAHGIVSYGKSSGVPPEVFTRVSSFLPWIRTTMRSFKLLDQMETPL

[1] = Inhibition of bovine pancreatic alpha-chymotrypsin using Suc-Ala-Ala-Pro-Phe-MCA as substrate preincubated for 10 mins followed by substrate addition measured after 10 mins by fluorescence assay; set-up: species or system Bos taurus
Neutrophil elastase = target: T2, Neutrophil elastase (Homo sapiens, UniProt P08246); test: Inhibition of human neutrophil elastase using MeOSuc-Ala-Ala-Pro-Val-pNA as substrate preincubated for 10 mins followed by substrate addition measured after 10 mins by fluorescence assay
T2 sequence (P08246 whole entry): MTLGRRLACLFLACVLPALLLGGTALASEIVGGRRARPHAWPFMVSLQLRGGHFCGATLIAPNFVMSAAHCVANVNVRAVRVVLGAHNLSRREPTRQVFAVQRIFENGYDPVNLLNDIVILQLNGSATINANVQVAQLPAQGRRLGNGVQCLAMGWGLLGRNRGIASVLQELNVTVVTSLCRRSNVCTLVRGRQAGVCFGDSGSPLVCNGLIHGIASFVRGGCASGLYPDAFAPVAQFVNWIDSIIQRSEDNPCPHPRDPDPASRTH

Row | SMILES | IC50 (Cathepsin G) | IC50 [1] | IC50 (Neutrophil elastase)
1 | CC[C@@H](NC(=O)N1CC(=O)NCC(Cc2cc(Cl)ccc2OC)C1=O)C(=O)Nc1cccc(C(=O)O)c1 (some centres undefined) | 8.5 µM | > 10 µM | > 10 µM
2 | CC[C@@H](NC(=O)N1CC(=O)NCC(Cc2cc(Cl)ccc2OC)C1=O)C(=O)Nc1cccc(N)c1 (some centres undefined) | > 10 µM | > 10 µM | > 10 µM
3 | CC[C@@H](NC(=O)N1CC(=O)NCC(Cc2cc(Cl)ccc2OC)C1=O)C(=O)Nc1nnn[nH]1 (some centres undefined) | > 10 µM | > 10 µM | > 10 µM
4 | CC[C@@H](NC(=O)N1CC(=O)NC[C@@H](Cc2cc(Cl)ccc2OC)C1=O)c1cc(C(=O)O)co1 | 7.8 µM | > 88 µM | > 100 µM
5 | CC[C@@H](NC(=O)N1CC(=O)NC[C@@H](Cc2cc(Cl)ccc2OC)C1=O)c1ccc(C(=O)O)c(N)c1 | – | > 100 µM | 100 µM

Source: ChEMBL document CHEMBL2396642, “Discovery of novel series of 6-benzyl substituted 4-aminocarbonyl-1,4-diazepane-2,5-diones as human chymase inhibitors using structure-based drug design” (Bioorg Med Chem, 2013)
